Measured values: publication PMC8279492, “Quinolinonyl Non-Diketo Acid Derivatives as Inhibitors of HIV-1 Ribonuclease H and Polymerase Functions of Reverse Transcriptase” (Journal of Medicinal Chemistry, 2021)
Where two headings read alike, the source gives them in different places.

Columns and labels:
[1] = biological target: T1, HIV-1 RT-associated RNase H activity (Human immunodeficiency virus type 1 group M subtype B, UniProt P03366); assay: biochemical; assay type: biochemical
T1 construct: His-tagged p66/p51 HIV-1 RT group M subtype B; His; made in house; host or cells: Escherichia coli M15
Method: (11) and β-thujaplicinol (BTP) used as positive controls.
His-tagged p66/p51 HIV-1 RT group M subtype B coded in a p6HRT-prot plasmid was expressed in the Escherichia coli strain M15.[65] Heterodimeric RTs were expressed essentially and purified as described.[66]
The HIV-1 RT-associated RNase H activity was measured as described.[68] Briefly, the reaction was carried out in a black 96-well plate in a total volume of 100 μL. […] Experiments were performed in duplicate and replicated at least two times. Data were analyzed as described.[36]

[2] = Compounds' toxicity, CellTiter 96 AQueous One Solution Cell Proliferation Assay; assay type: cell-based; details: human, HeLa-CD4-LTR-β-gal cells
Method: (§1) HIV-1 replication was monitored using HeLa-CD4-LTR-β-gal reporter cells as previously described.[69] Briefly, β-galactosidase activity was monitored 24 h post infection using a replication-competent HIV produced in-house (H9-laï coculture) and a serial dilution of molecules or an equivalent volume of DMSO. In parallel, compounds’ toxicity was determined at 24 h in the same cell line using CellTiter 96 AQueous One Solution Cell Proliferation Assay (Promega, France).

HIV-1 replication = HIV-1 replication in HeLa-CD4-LTR-β-gal reporter cells; assay type: cell-based; details: read-out: antiviral activity EC50
Method: as §1

HIV-1 IN = HIV-1 IN (Human immunodeficiency virus type 1 group M subtype B, UniProt P12497); assay: biochemical
Method: His-tagged NL4-3 IN was expressed from a pET15b plasmid in the E. coli BL21 pLys strain. Recombinant protein was purified as previously described[67] following a batch preparation on Ni-NTA beads (Qiagen, Paris, France).
Both oligonucleotides were purchased from Integrated DNA Technologies, Inc. (Coralville, IA), and the gel was purified in-house. ST reactions were performed by adding molecules or an equivalent volume of 100% dimethyl sulfoxide (DMSO, used as the drug solvent) to a mixture of 20 nM duplex DNA substrate and 400 nM IN in 50 mM MOPS pH 7.2, 7.5 mM MgCl2, and 14 mM 2-mercaptoethanol. Mixtures were incubated at 37 °C for 2 h, and the reaction was quenched by addition of an equal volume of loading buffer [formamide containing 1% sodium dodecyl sulfate (SDS), 0.25% bromophenol blue, and xylene cyanol]. […] Dried gels were visualized using a FLA5000 (Fuji Photo Film, Tokyo, Japan). Densitometric analyses were performed using ImageQuant 5.1 software from GE Healthcare.

[3] = anti-RH activity (IC50 ± SD), HIV-1 RT-associated RNase H activity, dose-response curves, no preincubation
[4] = CC50 (cytotoxic concentration 50%), 24 h
[5] = Human immunodeficiency virus 1, HeLa-CD4-LTR-β-gal cells, 24 h post infection
[6] = HIV-1 RT-associated RNase H activity, dose-response curves, no preincubation
[7] = Human immunodeficiency virus 1, 24 h

Q: With CCOC(=O)c1cn(Cc2ccc(F)cc2)c2ccc(OCc3ccc4c(c3)OCO4)cc2c1=O [5q, Ethyl 6-(Benzo[d][1,3]dioxol-5-ylmethoxy)-1-(4-fluorobenzyl)-4-oxo-1,4-dihydroquinoline-3-carboxylate] as the molecule, how does the IC50 [1, 3] read?
A: 55.3 ± 1.7 µM

Q: Which IC50 [1, 3] does the source give for CCOC(=O)c1cn(Cc2ccc(F)cc2)c2ccc(S(C)(=O)=O)cc2c1=O [5f, Ethyl 1-(4-Fluorobenzyl)-6-(methylsulfonyl)-4-oxo-1,4-dihydroquinoline-3-carboxylate] here?
A: > 100 µM

Q: Which IC50 [1, 3] does the source give for O=C(O)c1cn(Cc2ccc(F)cc2)c2ccc([N+](=O)[O-])cc2c1=O [4e, 1-(4-Fluorobenzyl)-6-nitro-4-oxo-1,4-dihydroquinoline-3-carboxylic Acid] here?
A: 56 ± 4 µM

Q: For CCOC(=O)c1cn(Cc2ccc(F)cc2)c2ccc([N+](=O)[O-])cc2c1=O [5e, Ethyl 1-(4-Fluorobenzyl)-6-nitro-4-oxo-1,4-dihydroquinoline-3-carboxylate], which IC50 [1, 3] is on record?
A: 47.8 ± 10 µM

Q: For CCOC(=O)c1cn(Cc2ccc(F)cc2)c2ccc(/C=C/C(=O)c3ccccc3)cc2c1=O [5k, (E)-Ethyl 1-(4-Fluorobenzyl)-4-oxo-6-(3-oxo-3-phenylprop-1-en-1-yl)-1,4-dihydroquinoline-3-carboxylate], which IC50 [1, 3] is on record?
A: 15.3 ± 1.6 µM

Q: What about the CC50 at 24 h [2, 4] of the same molecule?
A: > 100 µM

Q: And the EC50 (HIV-1 replication; [5])?
A: > 50 µM

Q: With CCOC(=O)c1cn(Cc2ccc(F)cc2)c2ccc(C(C)=O)cc2c1=O [5d, Ethyl 6-Acetyl-1-(4-fluorobenzyl)-4-oxo-1,4-dihydroquinoline-3-carboxylate] as the molecule, how does the IC50 [1, 3] read?
A: 11 ± 1 µM

Q: And the IC50 (HIV-1 IN)?
A: > 100 µM

Q: What about the CC50 at 24 h [2, 4] of the same molecule?
A: > 200 µM

Q: What about the CC50 at 24 h ([2]; supplement CSV, read-out: CC50) of the same molecule?
A: > 50 µM

Q: What about the EC50 (HIV-1 replication; [5]) of the same molecule?
A: > 50 µM

Q: What does the source list for CCOC(=O)c1cn(Cc2ccc(F)cc2)c2ccc(OCCCCc3ccccc3)cc2c1=O [5r, Ethyl 1-(4-Fluorobenzyl)-4-oxo-6-(4-phenylbutoxy)-1,4-dihydroquinoline-3-carboxylate]?
A: IC50 ([1]; RH IC50 (uM), supplement CSV): 28.4 ± 4.3 µM; IC50 [1, 3]: 28.4 ± 4.3 µM; CC50 at 24 h [2, 4]: > 200 µM; CC50 at 24 h ([2]; supplement CSV, read-out: CC50): > 50 µM; EC50 (HIV-1 replication; [5]): > 16 µM

Q: Which IC50 [1, 3] does the source give for CCOC(=O)c1cn(Cc2ccc(F)cc2)c2ccc(OCc3ccc(OCc4ccccc4)cc3)cc2c1=O [5t, Ethyl 6-((4-(Benzyloxy)benzyl)oxy)-1-(4-fluorobenzyl)-4-oxo-1,4-dihydroquinoline-3-carboxylate] here?
A: > 100 µM

Q: Which IC50 [1, 3] does the source give for CS(=O)(=O)c1ccc2c(c1)c(=O)c(C(=O)O)cn2Cc1ccc(F)cc1 [4f, 1-(4-Fluorobenzyl)-6-(methylsulfonyl)-4-oxo-1,4-dihydroquinoline-3-carboxylic Acid] here?
A: 100 µM

Q: Which IC50 [1, 3] does the source give for O=C(O)c1cn(Cc2ccc(F)cc2)c2ccc(O)cc2c1=O [4g, 1-(4-Fluorobenzyl)-6-hydroxy-4-oxo-1,4-dihydroquinoline-3-carboxylic Acid] here?
A: 74 ± 9 µM

Q: Which results are given for COc1ccc2c(c1)c(=O)c(C(=O)O)cn2Cc1ccc(F)cc1 [4h, 1-(4-Fluorobenzyl)-6-methoxy-4-oxo-1,4-dihydroquinoline-3-carboxylic Acid]?
A: anti-RH activity (IC50 ± SD) [1, 6]: no activity; IC50 [1, 3]: > 100 µM

Q: With CCOC(=O)c1cn(Cc2ccc(F)cc2)c2ccc(Oc3ccccc3)cc2c1=O [5i, Ethyl 1-(4-Fluorobenzyl)-4-oxo-6-phenoxy-1,4-dihydroquinoline-3-carboxylate] as the molecule, how does the IC50 [1, 3] read?
A: 45.5 ± 1.5 µM

Q: Which IC50 [1, 3] does the source give for CCOC(=O)c1cn(Cc2ccc(F)cc2)c2ccc(OCc3cccc4ccccc34)cc2c1=O [5o, Ethyl 1-(4-Fluorobenzyl)-6-(naphthalen-1-ylmethoxy)-4-oxo-1,4-dihydroquinoline-3-carboxylate] here?
A: 1.49 ± 0.33 µM

Q: What about the CC50 at 24 h [2, 4] of the same molecule?
A: > 100 µM

Q: And the EC50 (HIV-1 replication; [7])?
A: > 100 µM

Q: Which IC50 [1, 3] does the source give for O=C(O)c1cn(Cc2ccc(F)cc2)c2ccc(C(F)(F)F)cc2c1=O [4c, 1-(4-Fluorobenzyl)-4-oxo-6-(trifluoromethyl)-1,4-dihydroquinoline-3-carboxylic Acid] here?
A: > 100 µM

Q: With CCOC(=O)c1cn(Cc2ccc(F)cc2)c2ccc(OCc3ccc(-c4ccccc4)cc3)cc2c1=O [5s, Ethyl 6-([1,1′-Biphenyl]-4-ylmethoxy)-1-(4-fluorobenzyl)-4-oxo-1,4-dihydroquinoline-3-carboxylate] as the molecule, how does the IC50 [1, 3] read?
A: > 100 µM

Q: With CCOC(=O)c1cn(Cc2ccc(F)cc2)c2ccc(O)cc2c1=O [5g, Ethyl 1-(4-Fluorobenzyl)-6-hydroxy-4-oxo-1,4-dihydroquinoline-3-carboxylate] as the molecule, how does the IC50 [1, 3] read?
A: > 100 µM

Q: With CCOC(=O)c1cn(Cc2ccc(F)cc2)c2ccc(C(F)(F)F)cc2c1=O [5c, Ethyl 1-(4-Fluorobenzyl)-4-oxo-6-(trifluoromethyl)-1,4-dihydroquinoline-3-carboxylate] as the molecule, how does the IC50 [1, 3] read?
A: 59 ± 5 µM

Q: For CN(C)CCCOc1ccc2c(c1)c(=O)c(C(=O)O)cn2Cc1ccc(F)cc1 [4j, 6-(3-(Dimethylamino)propoxy)-1-(4-fluorobenzyl)-4-oxo-1,4-dihydroquinoline-3-carboxylic Acid], which IC50 [1, 3] is on record?
A: 15.4 ± 3 µM

Q: Which IC50 [1, 3] does the source give for CCOC(=O)/C=C/C(=O)/C=C/c1cccn1Cc1ccccc1Cl [compound 11, reference compound] here?
A: 7.5 ± 1.32 µM

Q: What about the IC50 (HIV-1 IN) of the same molecule?
A: > 100 µM

Q: And the CC50 at 24 h [2, 4]?
A: 68 ± 10 µM

Q: What about the EC50 (HIV-1 replication; [7]) of the same molecule?
A: 2.9 ± 0.5 µM

Q: For O=C(O)c1cn(Cc2ccc(F)cc2)c2ccc(Oc3ccccc3)cc2c1=O [4i, 1-(4-Fluorobenzyl)-4-oxo-6-phenoxy-1,4-dihydroquinoline-3-carboxylic Acid], which IC50 [1, 3] is on record?
A: 32 ± 11 µM

Q: Which IC50 [1, 3] does the source give for CCOC(=O)c1cn(Cc2ccc(F)cc2)c2ccc(OCc3ccccc3)cc2c1=O [5l, Ethyl 6-(Benzyloxy)-1-(4-fluorobenzyl)-4-oxo-1,4-dihydroquinoline-3-carboxylate] here?
A: 8 ± 1.6 µM

Q: What about the CC50 at 24 h [2, 4] of the same molecule?
A: > 100 µM

Q: And the EC50 (HIV-1 replication; [5])?
A: > 100 µM

Q: For O=C(O)c1cn(Cc2ccc(F)cc2)c2ccccc2c1=O [4a, 1-(4-Fluorobenzyl)-4-oxo-1,4-dihydroquinoline-3-carboxylic Acid], which IC50 [1, 3] is on record?
A: > 100 µM

Q: Which IC50 [1, 3] does the source give for CC(C)c1ccc(O)c(=O)c(O)c1 [BTP, β-thujaplicinol, reference compound] here?
A: 0.19 ± 0.03 µM

Q: For CCOC(=O)c1cn(Cc2ccc(F)cc2)c2ccc(OCCCN(C)C)cc2c1=O [5j, Ethyl 6-(3-(Dimethylamino)propoxy)-1-(4-fluorobenzyl)-4-oxo-1,4-dihydroquinoline-3-carboxylate], which IC50 [1, 3] is on record?
A: > 100 µM

Q: What does the source list for O=C(O)c1cn(Cc2ccc(F)cc2)c2ccc(OCCCCc3ccccc3)cc2c1=O [4r, 1-(4-Fluorobenzyl)-4-oxo-6-(4-phenylbutoxy)-1,4-dihydroquinoline-3-carboxylic Acid]?
A: IC50 [1, 3]: 8.27 ± 0.45 µM; CC50 at 24 h [2, 4]: > 200 µM; CC50 at 24 h ([2]; supplement CSV, read-out: CC50): > 50 µM; EC50 (HIV-1 replication; [5]): > 50 µM

Q: For CC(=O)c1ccc2c(c1)c(=O)c(C(=O)O)cn2Cc1ccc(F)cc1 [4d, 6-Acetyl-1-(4-fluorobenzyl)-4-oxo-1,4-dihydroquinoline-3-carboxylic Acid], which IC50 [1, 3] is on record?
A: 16.3 ± 1.42 µM

Q: And the IC50 (HIV-1 IN)?
A: > 100 µM

Q: What about the CC50 at 24 h [2, 4] of the same molecule?
A: > 200 µM

Q: And the CC50 at 24 h ([2]; supplement CSV, read-out: CC50)?
A: > 50 µM

Q: And the EC50 (HIV-1 replication; [5])?
A: > 50 µM

Q: What does the source list for CCOC(=O)c1cn(Cc2ccc(F)cc2)c2ccc(OCc3ccc4ccccc4c3)cc2c1=O [5p, Ethyl 1-(4-Fluorobenzyl)-6-(naphthalen-2-ylmethoxy)-4-oxo-1,4-dihydroquinoline-3-carboxylate]?
A: IC50 [1, 3]: 19.6 µM; CC50 at 24 h [2, 4]: 73 ± 24 µM; CC50 at 24 h ([2]; supplement CSV, read-out: CC50): > 50 µM; EC50 (HIV-1 replication; [5]): > 50 µM

Q: Which IC50 [1, 3] does the source give for CCOC(=O)c1cn(Cc2ccc(F)cc2)c2ccc(C#N)cc2c1=O [5b, Ethyl 6-Cyano-1-(4-fluorobenzyl)-4-oxo-1,4-dihydroquinoline-3-carboxylate] here?
A: > 100 µM

Q: For N#Cc1ccc2c(c1)c(=O)c(C(=O)O)cn2Cc1ccc(F)cc1 [4b, 6-Cyano-1-(4-fluorobenzyl)-4-oxo-1,4-dihydroquinoline-3-carboxylic Acid], which IC50 [1, 3] is on record?
A: > 100 µM

Q: Which results are given for CCOC(=O)c1cn(Cc2ccc(F)cc2)c2ccc(OC)cc2c1=O [5h, Ethyl 1-(4-Fluorobenzyl)-6-methoxy-4-oxo-1,4-dihydroquinoline-3-carboxylate]?
A: anti-RH activity (IC50 ± SD) [1, 6]: no activity; IC50 [1, 3]: > 100 µM

Q: With O=C(O)c1cn(Cc2ccc(F)cc2)c2ccc(OCc3ccc4ccccc4c3)cc2c1=O [4p, 1-(4-Fluorobenzyl)-6-(naphthalen-2-ylmethoxy)-4-oxo-1,4-dihydroquinoline-3-carboxylic Acid] as the molecule, how does the IC50 ([1]; RH IC50 (uM), supplement CSV) read?
A: 30.3 ± 1.69 µM

Q: What about the IC50 [1, 3] of the same molecule?
A: 30.3 ± 1.7 µM

Q: And the CC50 at 24 h [2, 4]?
A: > 200 µM

Q: And the CC50 at 24 h ([2]; supplement CSV, read-out: CC50)?
A: > 50 µM

Q: And the EC50 (HIV-1 replication; [5])?
A: > 50 µM
